Consider eleven molecules from ChEMBL document CHEMBL1201862, “PubChem BioAssay data set” (2004).

Some test systems named below: OVCAR-4; IGROV-1; COLO 205; 786-0; CCRF-CEM; MDA-MB-231; OVCAR-8; BT-549; SNB-19; HL-60; UACC-257; MCF7; RPMI-8226; UO-31; RXF 393; NCI-H522; SF-539; HOP-92; HCC 2998.
Common to all, as to test: DTP human tumour cell line panel, 48 h

One may read the GI50 as the concentration giving 50% growth inhibition.

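Five compound concentrations were applied to cells in 96-well plates for 48 hours; endpoints were derived by simple linear interpolation of the resulting dose-response curve. GI50 marks 50% less growth.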 The source made the active and inactive calls. No stated cut-off is given here; in the data, active = GI50 up to about 1.1 µM and inactive = higher.

Consider `CCCc1cn2c(/C=N/NC(=N)N)c(-c3ccc(Cl)c([N+](=O)[O-])c3)nc2s1`, for which the GI50 was 1.06 µM (active) in the experiment on OVCAR-4; 1.89 µM (inactive) in the experiment on IGROV-1; 1.51 µM (inactive) in the experiment on COLO 205; 1.8 µM (inactive) in the experiment with 786-0; 0.192 µM (active) with CCRF-CEM; 1.86 µM (inactive) in the experiment with MDA-MB-231. Besides, the GI50 was 1.82 µM (inactive) with OVCAR-8; 1.68 µM (inactive) in the experiment with BT-549; 1.5 µM (inactive) in the experiment with SNB-19; 1.2 µM (inactive) with HL-60; 1.61 µM (inactive) in the experiment on UACC-257; 1.94 µM (inactive) in the experiment on MCF7. Also, the GI50 with RPMI-8226 was 1.64 µM (inactive); with UO-31 it was 1.76 µM (inactive); in the experiment on RXF 393, 1.68 µM (inactive); with NCI-H522, 1.98 µM (inactive); in the experiment on SF-539, 1.88 µM (inactive); with HOP-92, 1.68 µM (inactive).
In the case of `COC(=O)CCc1cc(OC)c2oc(-c3ccc(OC)c(OC)c3)c(CO)c2c1`, the GI50 in the experiment with OVCAR-4, with IGROV-1, in the experiment with COLO 205, with 786-0, in the experiment with CCRF-CEM and with MDA-MB-231 was > 100 µM (inactive) each time. Further, the GI50 in the experiment with OVCAR-8, in the experiment with BT-549, in the experiment with SNB-19, in the experiment on HL-60, in the experiment with UACC-257 and in the experiment on MCF7 was > 100 µM (inactive) in each case. Also, the GI50 in the experiment on HCC 2998 was 1.7 µM (inactive); in the experiment on RPMI-8226, 99.5 µM (inactive); in the experiment on UO-31, > 100 µM (inactive); with NCI-H522, > 100 µM (inactive); with SF-539 it was > 100 µM (inactive); with HOP-92, > 100 µM (inactive).
`C=C1CC(CN2CCC(=O)NC2=O)(c2ccccc2)OC1=O` (stereo not drawn): the GI50 with OVCAR-4 was 1.81 µM (inactive); with IGROV-1, 7.87 µM (inactive); with COLO 205, 2.36 µM (inactive); with 786-0 it was 4.47 µM (inactive); in the experiment with CCRF-CEM, 1.84 µM (inactive); in the experiment with MDA-MB-231, 15 µM (inactive). Moreover, the GI50 in the experiment with OVCAR-8 is 16.4 µM (inactive); in the experiment on BT-549, 7.21 µM (inactive); with SNB-19, > 41.4 µM (inactive); with HL-60 it was 1.62 µM (inactive); in the experiment on UACC-257, 8.99 µM (inactive); in the experiment on MCF7 it was 1.64 µM (inactive). The GI50 is 15 µM (inactive) in the experiment on HCC 2998; 2.19 µM (inactive) in the experiment on RPMI-8226; 18 µM (inactive) in the experiment on UO-31; 0.859 µM (active) in the experiment with NCI-H522; 13.7 µM (inactive) with SF-539; 1.45 µM (inactive) with HOP-92.
As for `Brc1cc2nn(-c3ccccc3)nc2c2nonc12`, the GI50 with OVCAR-4, with IGROV-1, in the experiment with COLO 205, in the experiment on 786-0, in the experiment on CCRF-CEM and in the experiment on MDA-MB-231 was > 100 µM (inactive) in each case. Moreover, the GI50 in the experiment on OVCAR-8, with BT-549, in the experiment with SNB-19, with HL-60, with UACC-257 and in the experiment on MCF7 was > 100 µM (inactive) throughout. In addition, the GI50 in the experiment on HCC 2998, with RPMI-8226, with UO-31, with NCI-H522, in the experiment on SF-539 and with HOP-92 was > 100 µM (inactive) in each case.
`OC1=C2c3ccccc3NC2Oc2cc(F)ccc21` (stereo not drawn): the GI50 was 16.6 µM (inactive) in the experiment with OVCAR-4; 21.7 µM (inactive) in the experiment on IGROV-1; 14.5 µM (inactive) with COLO 205; 16 µM (inactive) in the experiment on 786-0; 2.22 µM (inactive) in the experiment on CCRF-CEM; 16.1 µM (inactive) in the experiment with MDA-MB-231. Also, the GI50 in the experiment on OVCAR-8 was 27 µM (inactive); in the experiment on BT-549, 16 µM (inactive); in the experiment with SNB-19, 20.3 µM (inactive); with UACC-257, 19 µM (inactive); in the experiment on MCF7, 24.9 µM (inactive); in the experiment on HCC 2998, 17.9 µM (inactive). In addition, the GI50 in the experiment on UO-31 is 13.9 µM (inactive); with RXF 393 it was 16.6 µM (inactive); with NCI-H522, 17.7 µM (inactive); in the experiment with HOP-92, 18 µM (inactive).
Regarding `CC(Br)CN(CC(C)Br)c1ccc2c(c1)Cc1ccccc1-2` (stereo not drawn), the GI50 in the experiment on OVCAR-4 was 13.1 µM (inactive); with IGROV-1 it was 6.93 µM (inactive); with COLO 205, 14.5 µM (inactive); in the experiment on 786-0 it was 11.1 µM (inactive); in the experiment with CCRF-CEM it was 2.03 µM (inactive); with MDA-MB-231 it was 13.9 µM (inactive). Besides, the GI50 in the experiment on OVCAR-8 was 9.98 µM (inactive); in the experiment on BT-549, 16.7 µM (inactive); with SNB-19 it was 13.6 µM (inactive); in the experiment with HL-60, 1.73 µM (inactive); in the experiment on UACC-257, 14.1 µM (inactive); in the experiment with MCF7 it was 6.49 µM (inactive). For the same molecule, the GI50 is 3.27 µM (inactive) in the experiment with RPMI-8226; 12.4 µM (inactive) in the experiment on UO-31; 14.3 µM (inactive) in the experiment on RXF 393; 6.9 µM (inactive) with NCI-H522; 7.62 µM (inactive) in the experiment with HOP-92.
Take `Nc1nc(N)c(C2=CCN(Cc3ccccc3)CC2)c(=O)[nH]1`: the GI50 in the experiment with OVCAR-4, in the experiment with IGROV-1, with COLO 205, with 786-0, in the experiment with CCRF-CEM and with MDA-MB-231 was > 100 µM (inactive) in each case. Also, the GI50 with OVCAR-8, in the experiment on BT-549, in the experiment on SNB-19, in the experiment with HL-60, with UACC-257 and in the experiment with MCF7 was > 100 µM (inactive) in each case. Besides, the GI50 in the experiment with RPMI-8226, in the experiment on UO-31, in the experiment with RXF 393, in the experiment on NCI-H522, in the experiment on SF-539 and with HOP-92 was > 100 µM (inactive) each time.
Take `Cc1ccc2c(c1)C(O)(c1ccccc1)CCS2` (stereo not drawn): the GI50 with OVCAR-4 is 43.4 µM (inactive); in the experiment on IGROV-1, 20.6 µM (inactive); in the experiment on COLO 205, 30.3 µM (inactive); with 786-0 it was 32.5 µM (inactive); in the experiment on MDA-MB-231, 18 µM (inactive); in the experiment on OVCAR-8 it was 36.7 µM (inactive). Moreover, the GI50 in the experiment with BT-549 was 27.3 µM (inactive); with SNB-19, 59.6 µM (inactive); in the experiment with HL-60, 28.2 µM (inactive); in the experiment on UACC-257, 42 µM (inactive); in the experiment on MCF7 it was 39.4 µM (inactive); in the experiment on UO-31 it was 19.2 µM (inactive). Further, the GI50 with RXF 393 is 68.5 µM (inactive); in the experiment with NCI-H522, 19.7 µM (inactive); in the experiment with SF-539 it was 20.2 µM (inactive); in the experiment with HOP-92, 17.7 µM (inactive).
With `O=C(N/C(=C/c1ccc(Cl)cc1Cl)c1nc2ccccc2s1)c1ccccc1`, the GI50 was 15.5 µM (inactive) in the experiment on OVCAR-4; 11.1 µM (inactive) in the experiment on IGROV-1; 18.3 µM (inactive) in the experiment with COLO 205; 12.9 µM (inactive) in the experiment on 786-0; 4.72 µM (inactive) in the experiment with CCRF-CEM; 10.3 µM (inactive) in the experiment on MDA-MB-231. Further, the GI50 in the experiment on OVCAR-8 is 18.6 µM (inactive); in the experiment on BT-549 it was 21.1 µM (inactive); in the experiment on SNB-19, 19.5 µM (inactive); in the experiment on HL-60 it was 32.4 µM (inactive); with UACC-257, 13.4 µM (inactive); in the experiment on MCF7 it was 16.2 µM (inactive). The GI50 in the experiment on RPMI-8226 is 12.1 µM (inactive); in the experiment with UO-31 it was 13.6 µM (inactive); with RXF 393, 31 µM (inactive); in the experiment with NCI-H522 it was 8.34 µM (inactive); in the experiment on SF-539, 15.5 µM (inactive); in the experiment on HOP-92, 52.6 µM (inactive).
Consider `CCC(=O)O[C@H]1CC[C@H]2[C@@H]3CCC4=CC(=O)C=C[C@]4(O)[C@H]3CC[C@]12C`, for which the GI50 was 28.3 µM (inactive) in the experiment on OVCAR-4; 22.4 µM (inactive) with IGROV-1; 37.8 µM (inactive) with COLO 205; 33.7 µM (inactive) in the experiment with 786-0; 4.09 µM (inactive) with CCRF-CEM; 22.7 µM (inactive) with MDA-MB-231. Also, the GI50 in the experiment on OVCAR-8 was 23 µM (inactive); with BT-549 it was 20.5 µM (inactive); with SNB-19 it was 28.4 µM (inactive); in the experiment on HL-60, 11.9 µM (inactive); in the experiment on UACC-257, 3.72 µM (inactive); in the experiment on MCF7 it was 23.9 µM (inactive). Also, the GI50 in the experiment on RPMI-8226 was 8.55 µM (inactive); with UO-31, 64.1 µM (inactive); with RXF 393, 24.5 µM (inactive); in the experiment on NCI-H522, 16.7 µM (inactive); in the experiment on SF-539 it was 29.6 µM (inactive); with HOP-92, 31.2 µM (inactive).
Turning to `NCCc1ccc(S(=O)(=O)O)cc1[N+](=O)[O-]`, the GI50 in the experiment with OVCAR-4, in the experiment with IGROV-1, with COLO 205, in the experiment on 786-0, in the experiment with CCRF-CEM and with MDA-MB-231 was > 100 µM (inactive) in each case. In addition, the GI50 in the experiment with OVCAR-8, in the experiment on BT-549, with SNB-19, in the experiment with HL-60, in the experiment on UACC-257 and in the experiment on MCF7 was > 100 µM (inactive) throughout. Moreover, the GI50 in the experiment on RPMI-8226, in the experiment on UO-31, in the experiment on RXF 393, in the experiment on NCI-H522, in the experiment on SF-539 and in the experiment on HOP-92 was > 100 µM (inactive) throughout.
